Measured values reported in patent publication US20100137449A1, “SUBSTITUTED 1,3-CYCLOPENTADIONE MULTI-TARGET PROTEIN KINASE MODULATORS OF CANCER, ANGIOGENESIS AND THE INFLAMMATORY PATHWAYS ASSOCIATED THEREWITH” (METAPROTEOMICS, LLC, priority 2007, published 2010).

How the values were obtained:
Assay in all cases: KinaseProfiler Assay
SGK2(h) = molecular target: T1, SGK2(h) (Homo sapiens, UniProt Q9HBY8)
T1 sequence (Q9HBY8 1-367): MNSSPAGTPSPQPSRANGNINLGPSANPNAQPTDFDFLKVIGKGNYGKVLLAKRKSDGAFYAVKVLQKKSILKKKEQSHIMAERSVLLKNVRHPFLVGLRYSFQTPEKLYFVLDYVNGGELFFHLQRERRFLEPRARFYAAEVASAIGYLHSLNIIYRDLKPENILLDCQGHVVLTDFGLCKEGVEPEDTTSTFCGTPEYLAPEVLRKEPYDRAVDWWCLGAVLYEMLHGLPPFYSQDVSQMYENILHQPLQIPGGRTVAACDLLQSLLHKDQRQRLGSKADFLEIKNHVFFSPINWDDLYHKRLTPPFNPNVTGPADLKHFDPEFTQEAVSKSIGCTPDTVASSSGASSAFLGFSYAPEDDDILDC

Txk(h) = molecular target: T2, Txk(h) (Homo sapiens, UniProt P42681)
T2 sequence (P42681 1-527): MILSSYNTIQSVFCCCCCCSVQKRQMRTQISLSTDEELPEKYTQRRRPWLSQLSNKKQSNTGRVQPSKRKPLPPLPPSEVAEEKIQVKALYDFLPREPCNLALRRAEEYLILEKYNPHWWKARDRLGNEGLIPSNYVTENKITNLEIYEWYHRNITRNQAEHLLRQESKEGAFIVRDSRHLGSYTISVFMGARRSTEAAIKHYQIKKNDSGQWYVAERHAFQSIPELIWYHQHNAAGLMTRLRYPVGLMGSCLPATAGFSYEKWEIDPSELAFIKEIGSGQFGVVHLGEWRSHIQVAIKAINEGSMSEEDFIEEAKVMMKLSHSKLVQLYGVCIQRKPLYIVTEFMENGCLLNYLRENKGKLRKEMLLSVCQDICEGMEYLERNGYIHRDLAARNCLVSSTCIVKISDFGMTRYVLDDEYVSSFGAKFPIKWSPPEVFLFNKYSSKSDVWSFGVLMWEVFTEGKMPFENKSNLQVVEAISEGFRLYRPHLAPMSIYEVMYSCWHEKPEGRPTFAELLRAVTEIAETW

Abl(h) = Abl(h) (Homo sapiens, UniProt P00519)
Abl(H396P)(h) = Abl(H396P)(h) (Homo sapiens, UniProt P00519, H396P)
CDK5/p35(h) = CDK5/p35(h) (Homo sapiens, UniProt Q00535)
CDK5/p35(h), sequence (Q00535 whole entry): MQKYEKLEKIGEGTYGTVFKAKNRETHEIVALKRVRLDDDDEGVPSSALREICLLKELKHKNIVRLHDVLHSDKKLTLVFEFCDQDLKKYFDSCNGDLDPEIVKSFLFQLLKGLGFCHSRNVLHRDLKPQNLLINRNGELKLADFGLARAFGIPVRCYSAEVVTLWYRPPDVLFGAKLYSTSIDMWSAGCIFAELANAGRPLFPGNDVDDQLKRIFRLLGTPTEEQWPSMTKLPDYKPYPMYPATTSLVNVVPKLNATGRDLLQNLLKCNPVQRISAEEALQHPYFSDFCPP
CDK5/p35(h), sequence (Q15078 whole entry partner): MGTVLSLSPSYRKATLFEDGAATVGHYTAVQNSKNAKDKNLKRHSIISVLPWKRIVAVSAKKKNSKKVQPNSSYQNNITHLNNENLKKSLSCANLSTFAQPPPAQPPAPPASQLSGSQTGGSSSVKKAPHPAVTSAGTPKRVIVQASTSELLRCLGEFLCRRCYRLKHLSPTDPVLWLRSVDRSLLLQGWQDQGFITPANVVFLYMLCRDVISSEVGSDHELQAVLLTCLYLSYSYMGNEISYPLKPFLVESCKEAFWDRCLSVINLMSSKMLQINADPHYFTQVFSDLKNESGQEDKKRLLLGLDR

ALK4(h) = molecular target: T3, ALK4(h) (Homo sapiens, UniProt P36896)
T3 sequence (P36896 24-505): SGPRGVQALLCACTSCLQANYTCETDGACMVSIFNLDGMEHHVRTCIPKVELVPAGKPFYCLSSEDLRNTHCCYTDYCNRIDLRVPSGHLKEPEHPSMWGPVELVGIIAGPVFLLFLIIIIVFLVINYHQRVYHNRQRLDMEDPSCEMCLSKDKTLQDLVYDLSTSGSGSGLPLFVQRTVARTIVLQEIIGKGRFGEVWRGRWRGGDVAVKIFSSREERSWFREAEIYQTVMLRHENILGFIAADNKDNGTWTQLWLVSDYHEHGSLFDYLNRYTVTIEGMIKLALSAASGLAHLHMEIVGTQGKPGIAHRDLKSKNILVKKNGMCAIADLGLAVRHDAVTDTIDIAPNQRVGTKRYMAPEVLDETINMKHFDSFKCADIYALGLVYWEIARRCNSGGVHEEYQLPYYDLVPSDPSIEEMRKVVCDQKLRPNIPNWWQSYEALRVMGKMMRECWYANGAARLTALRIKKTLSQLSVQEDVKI

PDGFRα(V561D)(h) = PDGFRα(V561D)(h) (Homo sapiens, UniProt P16234, V561D)
PDGFRα(V561D)(h), sequence (P16234 24-1089 V561D): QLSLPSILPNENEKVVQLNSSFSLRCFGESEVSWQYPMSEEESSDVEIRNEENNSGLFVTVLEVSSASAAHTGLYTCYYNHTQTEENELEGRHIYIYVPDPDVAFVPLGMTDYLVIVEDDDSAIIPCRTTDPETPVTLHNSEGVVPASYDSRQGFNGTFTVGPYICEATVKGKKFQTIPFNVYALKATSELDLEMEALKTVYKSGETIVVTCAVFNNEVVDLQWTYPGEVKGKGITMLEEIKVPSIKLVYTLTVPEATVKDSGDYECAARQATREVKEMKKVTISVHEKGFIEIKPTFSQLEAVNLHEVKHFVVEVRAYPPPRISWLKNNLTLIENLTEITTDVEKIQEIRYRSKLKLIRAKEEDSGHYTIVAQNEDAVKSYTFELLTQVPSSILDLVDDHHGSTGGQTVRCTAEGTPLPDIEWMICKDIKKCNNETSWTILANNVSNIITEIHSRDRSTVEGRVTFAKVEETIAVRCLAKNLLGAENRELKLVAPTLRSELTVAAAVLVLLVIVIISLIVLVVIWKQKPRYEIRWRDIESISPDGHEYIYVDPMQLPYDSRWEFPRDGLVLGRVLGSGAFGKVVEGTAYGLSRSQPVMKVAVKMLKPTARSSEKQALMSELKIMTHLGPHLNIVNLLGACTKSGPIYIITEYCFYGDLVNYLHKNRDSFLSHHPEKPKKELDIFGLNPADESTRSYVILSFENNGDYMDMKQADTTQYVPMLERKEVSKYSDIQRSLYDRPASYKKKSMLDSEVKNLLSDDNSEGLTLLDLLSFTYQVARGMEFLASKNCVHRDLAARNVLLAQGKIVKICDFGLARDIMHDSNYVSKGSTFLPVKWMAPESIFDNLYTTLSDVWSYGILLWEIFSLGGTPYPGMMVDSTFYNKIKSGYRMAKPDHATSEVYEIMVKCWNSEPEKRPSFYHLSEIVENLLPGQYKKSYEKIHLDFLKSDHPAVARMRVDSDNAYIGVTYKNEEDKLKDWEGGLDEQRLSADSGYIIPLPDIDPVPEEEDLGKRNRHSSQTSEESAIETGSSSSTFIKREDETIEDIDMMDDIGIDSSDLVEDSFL

MSK2(h) = MSK2(h) (Homo sapiens, UniProt O75676)
MSK2(h), sequence (O75676 whole entry): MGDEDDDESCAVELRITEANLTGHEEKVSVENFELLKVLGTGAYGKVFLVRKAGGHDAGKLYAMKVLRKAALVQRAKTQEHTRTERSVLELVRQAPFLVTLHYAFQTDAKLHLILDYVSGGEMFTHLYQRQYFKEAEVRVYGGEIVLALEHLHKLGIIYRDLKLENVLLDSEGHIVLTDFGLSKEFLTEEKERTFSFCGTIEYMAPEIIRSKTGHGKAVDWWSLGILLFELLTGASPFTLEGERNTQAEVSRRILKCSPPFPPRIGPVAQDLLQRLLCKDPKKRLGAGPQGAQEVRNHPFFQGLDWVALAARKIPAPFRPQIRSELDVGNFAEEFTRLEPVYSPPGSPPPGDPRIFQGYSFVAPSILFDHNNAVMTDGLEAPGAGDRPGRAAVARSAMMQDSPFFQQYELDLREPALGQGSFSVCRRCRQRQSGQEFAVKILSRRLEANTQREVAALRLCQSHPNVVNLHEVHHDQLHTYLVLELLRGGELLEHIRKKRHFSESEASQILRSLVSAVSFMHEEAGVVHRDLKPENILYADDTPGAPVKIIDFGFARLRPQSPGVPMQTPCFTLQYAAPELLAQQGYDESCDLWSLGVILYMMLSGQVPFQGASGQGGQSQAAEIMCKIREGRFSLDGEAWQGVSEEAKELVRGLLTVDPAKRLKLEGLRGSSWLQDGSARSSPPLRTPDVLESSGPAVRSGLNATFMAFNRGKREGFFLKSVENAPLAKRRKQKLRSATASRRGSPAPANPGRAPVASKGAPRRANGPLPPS

IRAK1(h) = IRAK1(h) (Homo sapiens, UniProt P51617)
Plk3(h) = Plk3(h) (Homo sapiens, UniProt Q9H4B4)
Plk3(h), sequence (Q9H4B4 whole entry): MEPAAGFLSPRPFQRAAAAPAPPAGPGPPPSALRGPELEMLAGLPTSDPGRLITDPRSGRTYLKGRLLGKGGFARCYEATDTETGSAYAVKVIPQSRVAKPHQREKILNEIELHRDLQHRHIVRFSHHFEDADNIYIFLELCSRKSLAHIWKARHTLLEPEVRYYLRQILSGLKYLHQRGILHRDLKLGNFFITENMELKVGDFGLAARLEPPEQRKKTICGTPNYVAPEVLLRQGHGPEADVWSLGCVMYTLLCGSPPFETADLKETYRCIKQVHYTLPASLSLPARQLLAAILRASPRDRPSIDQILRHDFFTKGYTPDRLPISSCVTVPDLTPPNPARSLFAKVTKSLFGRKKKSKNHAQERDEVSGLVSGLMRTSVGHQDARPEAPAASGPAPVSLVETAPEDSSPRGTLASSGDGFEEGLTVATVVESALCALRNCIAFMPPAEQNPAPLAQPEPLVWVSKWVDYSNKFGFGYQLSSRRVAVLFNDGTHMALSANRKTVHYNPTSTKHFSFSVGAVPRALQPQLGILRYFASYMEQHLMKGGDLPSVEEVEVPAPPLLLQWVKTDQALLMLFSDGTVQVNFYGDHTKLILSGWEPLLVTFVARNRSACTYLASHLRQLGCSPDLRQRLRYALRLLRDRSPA

PASK(h) = PASK(h) (Homo sapiens, UniProt Q96RG2)
PASK(h), sequence (Q96RG2 whole entry): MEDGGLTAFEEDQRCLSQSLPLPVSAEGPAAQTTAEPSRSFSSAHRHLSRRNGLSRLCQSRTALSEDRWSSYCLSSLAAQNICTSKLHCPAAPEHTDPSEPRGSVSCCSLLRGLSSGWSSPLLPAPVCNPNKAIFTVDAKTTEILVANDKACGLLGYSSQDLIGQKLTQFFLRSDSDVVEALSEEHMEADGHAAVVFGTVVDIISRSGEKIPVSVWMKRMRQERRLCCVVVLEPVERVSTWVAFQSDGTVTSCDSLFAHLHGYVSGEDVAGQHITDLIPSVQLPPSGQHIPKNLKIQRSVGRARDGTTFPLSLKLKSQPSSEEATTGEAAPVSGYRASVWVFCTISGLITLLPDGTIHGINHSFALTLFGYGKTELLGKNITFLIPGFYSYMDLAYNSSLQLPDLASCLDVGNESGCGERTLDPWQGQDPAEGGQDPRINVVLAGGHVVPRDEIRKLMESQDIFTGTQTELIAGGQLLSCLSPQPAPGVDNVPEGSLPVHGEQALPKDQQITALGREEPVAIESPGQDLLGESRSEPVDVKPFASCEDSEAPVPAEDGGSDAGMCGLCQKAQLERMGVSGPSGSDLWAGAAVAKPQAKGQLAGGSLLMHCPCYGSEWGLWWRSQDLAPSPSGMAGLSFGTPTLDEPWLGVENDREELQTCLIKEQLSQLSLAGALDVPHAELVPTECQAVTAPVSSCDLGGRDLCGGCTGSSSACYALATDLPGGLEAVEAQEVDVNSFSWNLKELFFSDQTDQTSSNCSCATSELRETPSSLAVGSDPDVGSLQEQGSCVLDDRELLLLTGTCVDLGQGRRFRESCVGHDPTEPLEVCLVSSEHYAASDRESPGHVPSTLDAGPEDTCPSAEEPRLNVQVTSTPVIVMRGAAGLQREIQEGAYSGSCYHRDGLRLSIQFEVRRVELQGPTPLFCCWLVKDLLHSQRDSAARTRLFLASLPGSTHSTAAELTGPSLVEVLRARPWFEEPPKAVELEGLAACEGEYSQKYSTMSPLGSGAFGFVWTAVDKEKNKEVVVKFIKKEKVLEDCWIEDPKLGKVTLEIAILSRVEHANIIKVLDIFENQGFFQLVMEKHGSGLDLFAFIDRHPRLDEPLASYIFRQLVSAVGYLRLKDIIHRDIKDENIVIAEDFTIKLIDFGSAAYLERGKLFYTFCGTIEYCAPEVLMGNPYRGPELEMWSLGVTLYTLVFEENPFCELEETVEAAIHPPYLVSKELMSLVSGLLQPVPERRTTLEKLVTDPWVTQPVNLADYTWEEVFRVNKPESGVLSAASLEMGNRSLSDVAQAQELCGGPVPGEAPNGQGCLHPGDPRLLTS

PAK3(h) = PAK3(h) (Homo sapiens, UniProt O75914)
PAK3(h), sequence (O75914 whole entry): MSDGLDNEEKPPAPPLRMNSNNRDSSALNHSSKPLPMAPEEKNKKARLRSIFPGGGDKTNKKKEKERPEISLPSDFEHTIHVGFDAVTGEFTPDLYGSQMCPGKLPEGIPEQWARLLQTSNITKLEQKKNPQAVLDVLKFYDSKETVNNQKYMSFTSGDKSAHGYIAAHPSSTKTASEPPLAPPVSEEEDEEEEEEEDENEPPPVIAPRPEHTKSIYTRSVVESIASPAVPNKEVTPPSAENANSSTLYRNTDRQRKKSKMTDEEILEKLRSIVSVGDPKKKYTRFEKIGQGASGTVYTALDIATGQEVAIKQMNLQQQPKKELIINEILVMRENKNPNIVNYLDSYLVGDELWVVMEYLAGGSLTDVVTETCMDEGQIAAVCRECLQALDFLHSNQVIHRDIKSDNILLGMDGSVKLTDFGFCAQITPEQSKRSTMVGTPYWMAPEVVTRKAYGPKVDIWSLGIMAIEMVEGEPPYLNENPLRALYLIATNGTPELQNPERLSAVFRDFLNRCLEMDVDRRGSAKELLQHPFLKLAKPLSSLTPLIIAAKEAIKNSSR

CC(C)CCC(=O)[C@]1(O)C(O)=C(C(=O)C(C)C)C(=O)[C@H]1CCC(C)C [TH2, tetrahydroiso-cohumulone]
kinase inhibition (SGK2(h); 1 μg/ml): 133% of control
kinase inhibition (SGK2(h); 5 μg/ml): 116% of control
kinase inhibition (SGK2(h); 25 μg/ml): 112% of control
kinase inhibition (SGK2(h); 50 μg/ml): 121% of control
kinase inhibition (SGK2(h); 100 μg/ml): 69% of control
kinase inhibition (Txk(h); 1 μg/ml): 114% of control
kinase inhibition (Txk(h); 5 μg/ml): 121% of control
kinase inhibition (Txk(h); 25 μg/ml): 121% of control
kinase inhibition (Txk(h); 50 μg/ml): 110% of control
kinase inhibition (Txk(h); 100 μg/ml): 107% of control
kinase inhibition (Abl(h); 1 μg/ml): 92% of control
kinase inhibition (Abl(h); 5 μg/ml): 87% of control
kinase inhibition (Abl(h); 25 μg/ml): 70% of control
kinase inhibition (Abl(h); 50 μg/ml): 64% of control
kinase inhibition (Abl(h); 100 μg/ml): 40% of control
kinase inhibition (Abl(H396P)(h); 1 μg/ml): 96% of control
kinase inhibition (Abl(H396P)(h); 5 μg/ml): 103% of control
kinase inhibition (Abl(H396P)(h); 25 μg/ml): 83% of control
kinase inhibition (Abl(H396P)(h); 50 μg/ml): 65% of control
kinase inhibition (Abl(H396P)(h); 100 μg/ml): 54% of control
kinase inhibition (CDK5/p35(h); 1 μg/ml): 105% of control
kinase inhibition (CDK5/p35(h); 5 μg/ml): 98% of control
kinase inhibition (CDK5/p35(h); 25 μg/ml): 106% of control
kinase inhibition (CDK5/p35(h); 50 μg/ml): 80% of control
kinase inhibition (CDK5/p35(h); 100 μg/ml): 90% of control
kinase inhibition (ALK4(h); 1 μg/ml): 109% of control
kinase inhibition (ALK4(h); 5 μg/ml): 104% of control
kinase inhibition (ALK4(h); 25 μg/ml): 97% of control
kinase inhibition (ALK4(h); 50 μg/ml): 83% of control
kinase inhibition (ALK4(h); 100 μg/ml): 63% of control
kinase inhibition (PDGFRα(V561D)(h); 1 μg/ml): 115% of control
kinase inhibition (PDGFRα(V561D)(h); 5 μg/ml): 126% of control
kinase inhibition (PDGFRα(V561D)(h); 25 μg/ml): 116% of control
kinase inhibition (PDGFRα(V561D)(h); 50 μg/ml): 111% of control
kinase inhibition (PDGFRα(V561D)(h); 100 μg/ml): 103% of control
kinase inhibition (MSK2(h); 1 μg/ml): 99% of control
kinase inhibition (MSK2(h); 5 μg/ml): 94% of control
kinase inhibition (MSK2(h); 25 μg/ml): 70% of control
kinase inhibition (MSK2(h); 50 μg/ml): 51% of control
kinase inhibition (MSK2(h); 100 μg/ml): 37% of control
kinase inhibition (IRAK1(h); 1 μg/ml): 99% of control
kinase inhibition (IRAK1(h); 5 μg/ml): 112% of control
kinase inhibition (IRAK1(h); 25 μg/ml): 37% of control
kinase inhibition (IRAK1(h); 50 μg/ml): 39% of control
kinase inhibition (IRAK1(h); 100 μg/ml): 39% of control
kinase inhibition (Plk3(h); 1 μg/ml): 120% of control
kinase inhibition (Plk3(h); 5 μg/ml): 105% of control
kinase inhibition (Plk3(h); 25 μg/ml): 104% of control
kinase inhibition (Plk3(h); 50 μg/ml): 99% of control
kinase inhibition (Plk3(h); 100 μg/ml): 86% of control
kinase inhibition (PASK(h); 1 μg/ml): 71% of control
kinase inhibition (PASK(h); 5 μg/ml): 76% of control
kinase inhibition (PASK(h); 25 μg/ml): 78% of control
kinase inhibition (PASK(h); 50 μg/ml): 80% of control
kinase inhibition (PASK(h); 100 μg/ml): 71% of control
kinase inhibition (PAK3(h); 1 μg/ml): 103% of control
kinase inhibition (PAK3(h); 5 μg/ml): 102% of control
kinase inhibition (PAK3(h); 25 μg/ml): 49% of control
kinase inhibition (PAK3(h); 50 μg/ml): 47% of control
kinase inhibition (PAK3(h); 100 μg/ml): 40% of control
